Assay results from ChEMBL document CHEMBL1201862, “PubChem BioAssay data set” (2004).
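Cells were grown in 96-well plates and exposed to each compound for 48 hours at five concentrations; endpoints were interpolated linearly between bracketing concentrations, or set to the highest concentration if not reached. GI50 is the concentration that inhibits growth by half.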 Activity calls are given as the source filed them. Rule as the data show it: active = GI50 up to about 1.1 µM and inactive = higher.

What was measured:
Assay in all cases: NCI tumour cell line growth inhibition, 48 h
HCC 2998 = system: HCC 2998
UACC-62 = system: UACC-62
SR = system: SR
ACHN = system: ACHN
MDA-MB-435 = system: MDA-MB-435
SF-268 = system: SF-268
OVCAR-3 = system: OVCAR-3
MDA-MB-231 = system: MDA-MB-231
SN12C = system: SN12C
SK-MEL-5 = system: SK-MEL-5
CAKI-1 = system: CAKI-1
NCI-H226 = system: NCI-H226
SW-620 = system: SW-620
NCI-H460 = system: NCI-H460
NCI/ADR-RES = system: NCI/ADR-RES
NCI-H23 = system: NCI-H23
Malme-3M = system: Malme-3M
LOX IMVI = system: LOX IMVI
A498 = system: A498
MDA-N = system: MDA-N

Measured: GI50

CN(C)c1ccc(/C=C2\Oc3cc(O)ccc3C2=O)cc1
inactive: HCC 2998 > 100 µM | UACC-62 > 100 µM | SR 52 µM | ACHN > 100 µM | MDA-MB-435 36.9 µM | SF-268 > 100 µM | OVCAR-3 38.7 µM | MDA-MB-231 53.1 µM | SN12C 62.4 µM | SK-MEL-5 80.7 µM | CAKI-1 > 100 µM | NCI-H226 > 100 µM | SW-620 48.9 µM | NCI-H460 80.5 µM | NCI/ADR-RES 83.4 µM | NCI-H23 > 100 µM

CC1(C)OCC(COC(=O)NCn2cc(-c3ccccc3)nn2)O1 (stereo unspecified)
inactive: HCC 2998 26.2 µM | SR > 100 µM | ACHN > 100 µM | SF-268 > 100 µM | MDA-MB-231 > 100 µM | SN12C > 100 µM | SK-MEL-5 > 100 µM | Malme-3M > 100 µM | CAKI-1 > 100 µM | NCI-H226 > 100 µM | SW-620 > 100 µM | NCI-H460 > 100 µM | NCI/ADR-RES > 100 µM | LOX IMVI > 100 µM | NCI-H23 > 100 µM

COc1ccc2cc(C(=O)c3ccccc3C(=O)O)ccc2c1
inactive: HCC 2998 > 100 µM | UACC-62 > 100 µM | SR > 100 µM | ACHN > 100 µM | SF-268 > 100 µM | OVCAR-3 > 100 µM | SN12C > 100 µM | SK-MEL-5 > 100 µM | Malme-3M > 100 µM | CAKI-1 > 100 µM | NCI-H226 > 100 µM | SW-620 > 100 µM | NCI-H460 > 100 µM | LOX IMVI > 100 µM | A498 > 100 µM | NCI-H23 > 100 µM

Oc1cn(-c2ccc(Cl)cc2)nc1-c1n[nH]c(=S)n1-c1ccccc1
inactive: UACC-62 11.4 µM | SR 2.97 µM | ACHN 18.8 µM | MDA-MB-435 1.95 µM | SF-268 10.4 µM | OVCAR-3 2.51 µM | MDA-MB-231 57.5 µM | SN12C 17.8 µM | SK-MEL-5 4.19 µM | Malme-3M 16.2 µM | CAKI-1 8.09 µM | NCI-H226 6.22 µM | SW-620 5.07 µM | NCI-H460 10.6 µM | NCI/ADR-RES 3.79 µM | A498 14 µM | NCI-H23 10.5 µM

CCN(CC)CCSc1c2ccccc2nc2cc(NCC(=O)Nc3ccccc3-c3ccccc3NC(=O)CNc3ccc4c(SCCN(CC)CC)c5ccccc5nc4c3)ccc12
inactive: HCC 2998 > 100 µM | UACC-62 > 100 µM | SR 34.1 µM | ACHN > 100 µM | SF-268 > 100 µM | OVCAR-3 > 100 µM | SN12C > 100 µM | SK-MEL-5 > 100 µM | Malme-3M > 77.3 µM | CAKI-1 > 100 µM | NCI-H226 > 100 µM | SW-620 > 100 µM | NCI-H460 > 100 µM | LOX IMVI > 76.6 µM | A498 > 100 µM | NCI-H23 > 100 µM

C=C1N(C=O)C(C)(C)N(O)C1(C)C
inactive: HCC 2998 > 100 µM | UACC-62 > 100 µM | ACHN > 100 µM | MDA-MB-435 > 100 µM | SF-268 > 100 µM | OVCAR-3 > 100 µM | MDA-MB-231 > 100 µM | SN12C > 100 µM | SK-MEL-5 > 100 µM | Malme-3M > 100 µM | CAKI-1 > 100 µM | NCI-H226 > 100 µM | SW-620 > 100 µM | NCI-H460 > 100 µM | NCI/ADR-RES > 100 µM | LOX IMVI > 100 µM | NCI-H23 > 100 µM

O=c1[nH]c2nccn2c2c1SCCN2
inactive: HCC 2998 > 100 µM | UACC-62 > 100 µM | SR > 100 µM | ACHN > 100 µM | MDA-MB-435 > 100 µM | SF-268 > 100 µM | OVCAR-3 > 100 µM | SN12C > 100 µM | SK-MEL-5 > 100 µM | Malme-3M > 100 µM | CAKI-1 > 100 µM | NCI-H226 > 100 µM | SW-620 > 100 µM | NCI-H460 > 100 µM | NCI/ADR-RES > 100 µM | LOX IMVI > 100 µM | A498 > 100 µM | NCI-H23 > 100 µM | MDA-N > 100 µM

C[C@@H]1OC2(O)[C@H]3CCCN3S(=O)(=O)CCN2C1=O (stereo partly specified)
inactive: HCC 2998 > 100 µM | UACC-62 > 100 µM | SR > 100 µM | ACHN > 100 µM | SF-268 > 100 µM | OVCAR-3 > 100 µM | SN12C > 100 µM | SK-MEL-5 > 100 µM | Malme-3M > 100 µM | CAKI-1 > 100 µM | NCI-H226 > 100 µM | SW-620 > 100 µM | NCI-H460 > 100 µM | LOX IMVI > 100 µM | A498 > 100 µM | NCI-H23 > 100 µM

COC(=O)C1=C(OC(=O)/C(=C/c2c(F)cccc2F)c2ccccc2)C(C(=O)OC)[C@@]2(O)[C@@H](C(=O)OC)[C@H](C)C[C@@H]1[C@@H]2C(=O)OC (stereo partly specified)
inactive: UACC-62 > 100 µM | ACHN > 100 µM | MDA-MB-435 > 100 µM | SF-268 > 100 µM | OVCAR-3 > 100 µM | MDA-MB-231 > 100 µM | SN12C > 100 µM | Malme-3M 68.5 µM | CAKI-1 > 100 µM | NCI-H226 > 100 µM | SW-620 > 100 µM | NCI-H460 > 100 µM | NCI/ADR-RES > 100 µM | LOX IMVI > 100 µM | NCI-H23 > 100 µM

COc1cccc2c1C(=O)c1c(O)c3c(c(O)c1C2=O)CC(O)(C(C)=O)CC3OC1OC(COC(C)=O)C(OC(C)=O)C(OC(C)=O)C1OC(C)=O (stereo unspecified)
inactive: UACC-62 33.2 µM | SR 5.38 µM | ACHN 17.4 µM | MDA-MB-435 88.7 µM | SF-268 11.4 µM | OVCAR-3 14 µM | MDA-MB-231 17.7 µM | SN12C 48.3 µM | SK-MEL-5 23.9 µM | Malme-3M 35.6 µM | SW-620 > 100 µM | NCI-H460 > 100 µM | NCI/ADR-RES > 100 µM | LOX IMVI 29.9 µM

CC(O[Si](c1ccccc1)(c1ccccc1)C(C)(C)C)[C@H](NC(=O)OC(C)(C)C)C(=O)O[Si](c1ccccc1)(c1ccccc1)C(C)(C)C (stereo partly specified)
inactive: HCC 2998 15.9 µM | SR 12.3 µM | ACHN 10.8 µM | SF-268 14.3 µM | SK-MEL-5 15.7 µM | Malme-3M 16.5 µM | CAKI-1 12.4 µM | SW-620 16.1 µM | NCI-H460 11.5 µM | NCI/ADR-RES 14.4 µM | A498 > 10 µM | NCI-H23 11.7 µM | MDA-N 18.8 µM

NCCCCN(CCCN)C(=O)OCc1ccccc1
inactive: HCC 2998 > 100 µM | UACC-62 > 100 µM | SR > 100 µM | ACHN > 100 µM | MDA-MB-435 > 100 µM | SF-268 > 100 µM | OVCAR-3 > 100 µM | MDA-MB-231 > 100 µM | SN12C > 100 µM | SK-MEL-5 > 100 µM | CAKI-1 > 100 µM | NCI-H226 > 100 µM | SW-620 > 100 µM | NCI-H460 > 100 µM | NCI/ADR-RES > 100 µM | A498 > 100 µM | NCI-H23 > 100 µM
